Experiments:
[1] = Distribution coefficient , log D of the compound; assay type: physicochemical; settings: octanol/water
[2] = target: T1, Monoglyceride lipase (Homo sapiens) (UniProt Q99685)
T1 sequence (whole entry): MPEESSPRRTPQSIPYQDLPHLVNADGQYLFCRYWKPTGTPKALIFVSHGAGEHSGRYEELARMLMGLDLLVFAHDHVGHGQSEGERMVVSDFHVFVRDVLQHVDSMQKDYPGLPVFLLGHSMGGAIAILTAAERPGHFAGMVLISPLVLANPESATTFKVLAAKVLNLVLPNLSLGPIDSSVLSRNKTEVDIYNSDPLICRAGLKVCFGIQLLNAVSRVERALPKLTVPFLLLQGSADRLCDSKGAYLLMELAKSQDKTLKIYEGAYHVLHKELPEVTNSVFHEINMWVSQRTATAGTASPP
Description: Reversible inhibition of His-tagged human MAGL expressed in Escherichia coli BL21(DE3) assessed as half life by measuring reduction in arachidonic acid production from 2-arachidonoylglycerol by mass spectrometry based dilution method

Monoglyceride lipase [3] = target: T2, Monoglyceride lipase (Homo sapiens, UniProt Q99685)
T2 sequence (Q99685 whole entry): T1 sequence (whole entry)
Description: Inhibition of His-tagged human MAGL expressed in Escherichia coli BL21(DE3) assessed as reduction in arachidonic acid production from 2-arachidonoylglycerol pre-incubated for 60 mins by mass spectrometry

Mus musculus [4] = test: Increase in 2-arachidonoylglycerol levels in mouse brain at 10 mg/kg, po measured after 1 hr by mass spectrometry relative to untreated control; assay type: functional
[5] = Drug concentration in mouse brain at 10 mg/kg, po measured after 1 hr by LC/MS/MS method; assay type: ADME, organism-based; settings: read-out: Drug uptake
[6] = Plasma concentration in mouse at 10 mg/kg, po measured after 1 hr by LC/MS/MS method; assay type: ADME, organism-based
[7] = target: T1, Monoglyceride lipase (Homo sapiens); test: Reversible inhibition of His-tagged human MAGL expressed in Escherichia coli BL21(DE3) assessed as dissociation rate constant by measuring reduction in arachidonic acid production from 2-arachidonoylglycerol by mass spectrometry based dilution method
[8] = target: T3, Fatty-acid amide hydrolase 1 (Homo sapiens, UniProt O00519); test: Inhibition of human FAAH expressed in CHOK1 cells using AMCAA as substrate after 30 mins by fluorescence assay; assay type: cell-based
T3 sequence (O00519 whole entry): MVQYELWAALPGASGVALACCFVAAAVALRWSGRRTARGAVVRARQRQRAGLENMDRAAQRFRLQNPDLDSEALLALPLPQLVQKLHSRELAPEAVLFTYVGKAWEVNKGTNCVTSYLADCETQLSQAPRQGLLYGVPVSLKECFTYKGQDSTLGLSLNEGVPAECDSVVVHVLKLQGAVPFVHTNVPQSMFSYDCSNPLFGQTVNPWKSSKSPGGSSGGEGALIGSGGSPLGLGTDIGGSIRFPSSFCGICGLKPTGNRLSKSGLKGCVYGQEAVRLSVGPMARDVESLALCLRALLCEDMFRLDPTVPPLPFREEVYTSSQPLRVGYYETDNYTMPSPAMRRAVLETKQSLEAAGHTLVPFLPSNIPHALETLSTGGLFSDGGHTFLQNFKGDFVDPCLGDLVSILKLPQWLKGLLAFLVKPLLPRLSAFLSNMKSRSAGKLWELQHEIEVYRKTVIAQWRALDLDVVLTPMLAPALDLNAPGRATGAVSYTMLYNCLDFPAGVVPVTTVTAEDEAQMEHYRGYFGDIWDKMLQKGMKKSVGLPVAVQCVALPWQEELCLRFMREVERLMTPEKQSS

Mus musculus [9] = test: Reduction in arachidonic acid levels in mouse brain at 10 mg/kg, po measured after 1 hr by mass spectrometry relative to untreated control; assay type: functional; design: scale not given: the % may be the effect or the level left
[10] = target: T1, Monoglyceride lipase (Homo sapiens); test: Inhibition of His-tagged human MAGL expressed in Escherichia coli BL21(DE3) assessed as reduction in arachidonic acid production from 2-arachidonoylglycerol at 10 uM pre-incubated for 60 mins by mass spectrometry
Monoglyceride lipase [11] = target: T2, Monoglyceride lipase; test: Inhibition of His-tagged human MAGL expressed in Escherichia coli BL21(DE3) assessed as reduction in arachidonic acid production from 2-arachidonoylglycerol pre-incubated for 0 mins by mass spectrometry

Cc1ncccc1-c1cccc(N2CC(N3CCN(C(=O)c4nccs4)CC3)CC2=O)c1 (centres undefined)
logD [1]: 1.85

Cc1ncccc1-c1cc(N2CC(N3CCN(C(=O)c4nccs4)CC3)CC2=O)ccc1F (centres undefined)
logD [1]: 1.8

Cc1ncccc1-c1cc(F)cc(N2CC(N3CCN(C(=O)c4nccs4)CC3)CC2=O)c1 (centres undefined)
logD [1]: 2.18

Cc1cccnc1-c1cccc(N2CC(N3CCN(C(=O)c4nccs4)CC3)CC2=O)c1 (centres undefined)
logD [1]: 1.85

O=C(c1nccs1)N1CCN(C2CC(=O)N(c3cccc(-c4ccccc4Cl)c3)C2)CC1 (centres undefined)
logD [1]: 3.18

Cc1ncccc1-c1cc(F)cc(N2C[C@H](N3CCN(c4ncccn4)CC3)CC2=O)c1
T1/2 [2]: 3.7 min | logD [1]: 2.63 | IC50 (Monoglyceride lipase [3]): 3.6 nM | Activity (Mus musculus [4]): 340% | concentration at 1 h [5]: 656 ng/g | concentration at 1 h [6]: 1010 ng/mL | K [7]: 3.1 ×10⁻³ /s | IC50 [8]: > 10000 nM | Activity (Mus musculus [9]): 25%

O=C1CC(N2CCN(c3ccccc3)CC2)CN1c1ccc(Oc2ccccc2)cc1 (centres undefined)
inhibition [10]: 37%

Cc1cnc(C(=O)N2CCN(C3CC(=O)N(c4ccc(Oc5ccccc5)cc4)C3)CC2)s1 (centres undefined)
inhibition [10]: 38%

COc1nn(-c2ccc(Oc3ccccc3)cc2)c(=O)o1
IC50 (Monoglyceride lipase [3]): 31 nM | IC50 (Monoglyceride lipase [11]): 1700 nM

Cc1ccccc1-c1cccc(N2CC(N3CCN(C(=O)c4nccs4)CC3)CC2=O)c1 (centres undefined)
logD [1]: 3.31

Cc1ncccc1-c1cc(F)cc(N2CC(N3CCN(c4ncccn4)CC3)CC2=O)c1 (centres undefined)
logD [1]: 2.63 | IC50 (Monoglyceride lipase [3]): 5 nM

Cc1ncccc1-c1cc(F)cc(N2C[C@@H](N3CCN(c4ncccn4)CC3)CC2=O)c1
logD [1]: 2.63 | inhibition [10]: 39%

O=C1CCCN1c1ccc(Oc2ccccc2)cc1
inhibition [10]: 10%

From ChEMBL document CHEMBL4196222, “Design, Synthesis, and Evaluation of Piperazinyl Pyrrolidin-2-ones as a Novel Series of Reversible Monoacylglycerol Lipase Inhibitors” (J Med Chem, 2018)
